Results as given in patent publication US8877707B2, “Inhibitors of HCV NS5A” (Presidio Pharmaceuticals, Inc., priority 2010, dated 2014).

What follows are molecules tested on HCV genotype 1b replicon in Huh 7 cells (assay: HCV replicon assay (1b_Huh-Luc/Neo-ET cell line, luciferase readout)). Conditions: Hepatitis C virus; Table 1; genotype 1b replicon, Huh 7 cells, 72 h, luciferase; read-out: Inhibition of HCV genotype 1b.
Format: cell-based
Outline: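 Huh 7 cells carrying a bicistronic genotype 1b luciferase replicon were treated with compound in triplicate the day after plating and incubated 72 h. Luciferase activity expressed as % of untreated control; EC50 from a four-parameter logistic fit, repeated several times.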

Compound	EC50 [nM]
COC(=O)N[C@H](C(=O)N1CCC[C@H]1c1nc2ccc(-c3ccc4cc(-c5ccc6nc([C@@H]7CCCN7C(=O)[C@@H](NC(=O)OC)C7CCOCC7)[nH]c6c5)ccc4c3)cc2[nH]1)C(C)C [compound 282]	< 1
COC(=O)N[C@H](C(=O)N1CCC[C@H]1c1nc2ccc(-c3ccc4cc(-c5ccc6nc([C@@H]7CCCN7C(=O)[C@H](NC(=O)OC)c7ccccc7)[nH]c6c5)ccc4c3)cc2[nH]1)C(C)C [compound 283]	< 1
COC(=O)N[C@H](C(=O)N1CCC[C@H]1c1nc2ccc(-c3ccc4cc(-c5ccc6nc([C@@H]7CCCN7C(=O)[C@@H](NC(=O)OC)C7CCOCC7)[nH]c6n5)ccc4c3)nc2[nH]1)C1CCOCC1 [compound 284]	1 to 9.9
COC(=O)N[C@@H](C(=O)N1CCC[C@H]1c1nc(-c2ccc3nc(C4CCC(c5cnc([C@@H]6CCCN6C(=O)[C@H](NC(=O)OC)c6ccccc6)[nH]5)CC4)ccc3c2)c[nH]1)c1ccccc1 (stereo partly shown) [compound 286]	< 1
COC(=O)N[C@H](C(=O)N1CCC[C@H]1c1nc(-c2ccc3c(=O)n(-c4ccc(-c5cnc([C@@H]6CCCN6C(=O)[C@@H](NC(=O)OC)C(C)C)[nH]5)cc4)ccc3c2)c[nH]1)C(C)C [compound 287]	< 1
COC(=O)N[C@@H](C(=O)N1CCC[C@H]1c1nc(-c2ccc3c(=O)n(-c4ccc(-c5cnc([C@@H]6CCCN6C(=O)[C@H](NC(=O)OC)c6ccccc6)[nH]5)cc4)ccc3c2)c[nH]1)c1ccccc1 [compound 288]	< 1
COC(=O)N[C@@H](C(=O)N1CCC[C@H]1c1nc(-c2ccc3c(c2)CCN(c2ccc(-c4cnc([C@@H]5CCCN5C(=O)[C@H](NC(=O)OC)c5ccccc5)[nH]4)cc2)C3=O)c[nH]1)c1ccccc1 [compound 289]	< 1
COC(=O)N[C@H](C(=O)N1CCC[C@H]1c1ncc(-c2ccc(N3Cc4cc(-c5cnc([C@@H]6CCCN6C(=O)[C@@H](NC(=O)OC)C(C)C)[nH]5)ccc4C3=O)cc2)[nH]1)C(C)C [compound 290]	< 1
COC(=O)N[C@H](C(=O)N1CCC[C@H]1c1nc(C2CNc3cc(-c4ccc(-c5cnc([C@@H]6CCCN6C(=O)[C@H](NC(=O)OC6CCOCC6)c6ccccc6)[nH]5)cc4)ccc3C2)c[nH]1)C(C)C (stereo partly shown) [compound 291]	< 1
COC(=O)N[C@H](C(=O)N1CCC[C@H]1c1ncc(-c2ccc3nc(-c4ccc5c(ccc6nc([C@@H]7CCCN7C(=O)[C@@H](NC(=O)OC)C(C)C)[nH]c65)c4)ccc3c2)[nH]1)C(C)C [compound 296]	< 1
COC(=O)N[C@H](C(=O)N1CCC[C@H]1c1nc2ccc3cc(-c4ccc5cc(-c6cnc([C@@H]7CCCN7C(=O)[C@@H](NC(=O)OC)C7CCOCC7)[nH]6)ccc5n4)ccc3c2[nH]1)C(C)C [compound 297]	< 1
COC(=O)N[C@H](C(=O)N1CCC[C@H]1c1nc2ccc3cc(-c4ccc5cc(-c6cnc([C@@H]7CCCN7C(=O)[C@H](NC(=O)OC)c7ccccc7)[nH]6)ccc5n4)ccc3c2[nH]1)C(C)C [compound 298]	< 1
COC(=O)N[C@H](C(=O)N1CCC[C@H]1c1nc2ccc3cc(-c4ccc5cc(-c6cnc([C@@H]7CCCN7C(=O)[C@H](NC(=O)OC7CCOCC7)c7ccccc7)[nH]6)ccc5n4)ccc3c2[nH]1)C(C)C [compound 299]	< 1

Same assay, conditions: Hepatitis C virus; Table 2; genotype 1b replicon, Huh 7 cells, 72 h, luciferase; read-out: Inhibition of HCV genotype 1b

Compound	EC50 [nM]
COC(=O)N[C@H](C(=O)N[C@@H](C)c1ncc(-c2ccc3cc(-c4ccc(-c5cnc([C@@H]6CCCN6C(=O)[C@@H](NC(=O)OC)C(C)C)[nH]5)cc4)ccc3c2)[nH]1)C(C)C [compound 304]	< 1
COC(=O)N[C@H](C(=O)N1CCC[C@H]1c1ncc(-c2ccc(-c3ccc4cc(-c5cnc([C@@H]6C[C@@H](O)CN6C(=O)[C@@H](NC(=O)OC)C(C)C)[nH]5)ccc4c3)cc2)[nH]1)C(C)C [compound 305]	< 1
COC(=O)N[C@H](C(=O)N1CC[C@H](O)[C@H]1c1ncc(-c2ccc3cc(-c4ccc(-c5cnc([C@@H]6CCCN6C(=O)[C@@H](NC(=O)OC)C(C)C)[nH]5)cc4)ccc3c2)[nH]1)C(C)C [compound 306]	< 1
COC(=O)N[C@H](C(=O)N1CCCC[C@H]1c1ncc(-c2ccc3cc(-c4ccc(-c5cnc([C@@H]6CCCN6C(=O)[C@@H](NC(=O)OC)C(C)C)[nH]5)cc4)ccc3c2)[nH]1)C(C)C [compound 307]	< 1
COC(=O)N[C@H](C(=O)N1CCC[C@H]1c1ncc(-c2ccc(-c3ccc4cc(-c5cnc([C@@H]6CSCCN6C(=O)[C@@H](NC(=O)OC)C(C)C)[nH]5)ccc4c3)cc2)[nH]1)C(C)C [compound 308]	< 1
COC(=O)N[C@H](C(=O)N1CCC[C@H]1c1ncc(-c2ccc(-c3ccc4cc(-c5cnc([C@@H]6CCCN6C(=O)[C@@H](NC(=O)OC)C(C)C)[nH]5)ccc4c3)c(C#N)c2)[nH]1)C(C)C [compound 309]	< 1
COC(=O)N[C@H](C(=O)N1CCC[C@H]1c1ncc(-c2ccc(-c3ccc4cc(-c5cnc([C@@H]6CCCN6C(=O)[C@@H](NC(=O)OC)C(C)C)[nH]5)ccc4c3)c(C(F)(F)F)c2)[nH]1)C(C)C [compound 310]	< 1
COC(=O)N[C@H](C(=O)N1CCC[C@H]1c1ncc(-c2ccc3cc(-c4ccc(-c5cnc([C@@H]6CCCN6C(=O)[C@@H](NC(=O)OC)C(C)C)[nH]5)nn4)ccc3c2)[nH]1)C(C)C [compound 312]	< 1
COC(=O)N[C@H](C(=O)N1CCC[C@H]1c1ncc(-c2ccc3cc(-c4ccc(-c5cnc([C@@H]6CCCN6C(=O)[C@@H](NC(=O)OC)C6CCOCC6)[nH]5)nn4)ccc3c2)[nH]1)C1CCOCC1 [compound 314]	< 1
COC(=O)N[C@H](C(=O)N1CCC[C@H]1c1ncc(-c2ccc3cc(-c4ccc(-c5cnc([C@@H]6CCCN6C(=O)[C@H](NC(=O)OC)c6ccccc6)[nH]5)nn4)ccc3c2)[nH]1)C1CCOCC1 [compound 315]	< 1
COC[C@H](NC(=O)OC)C(=O)N1CCC[C@H]1c1ncc(-c2ccc3cc(-c4ccc(-c5cnc([C@@H]6CCCN6C(=O)[C@H](NC(=O)OC)c6ccccc6)[nH]5)cc4)ccc3c2)[nH]1 [compound 316]	< 1
COC(=O)N[C@@H](C)C(=O)N1CCC[C@H]1c1ncc(-c2ccc3cc(-c4ccc(-c5cnc([C@@H]6CCCN6C(=O)[C@H](NC(=O)OC)c6ccccc6)[nH]5)cc4)ccc3c2)[nH]1 [compound 319]	< 1
COC(=O)NC(C(=O)N1CCC[C@H]1c1ncc(-c2ccc3cc(-c4ccc(-c5cnc([C@@H]6CCCN6C(=O)[C@H](NC(=O)OC)c6ccccc6)[nH]5)cc4)ccc3c2)[nH]1)[C@@H](C)O (stereo partly shown) [compound 320]	< 1
COC(=O)N[C@@H](C)C(=O)N1CCC[C@H]1c1ncc(-c2ccc3cc(-c4ccc(-c5cnc([C@@H]6COCCN6C(=O)[C@H](NC(=O)OC)c6ccccc6)[nH]5)cc4)ccc3c2)[nH]1 [compound 322]	< 1
COC(=O)N[C@H](C(=O)N1CCC[C@H]1c1ncc(-c2ccc3cc(-c4ccc(-c5cnc([C@@H]6COCCN6C(=O)[C@H](NC(=O)OC)c6ccccc6)[nH]5)cc4)ccc3c2)[nH]1)[C@@H](C)OC [compound 323]	< 1
COC(=O)N[C@H](C(=O)N1CCC[C@H]1c1ncc(-c2ccc3cc(-c4ccc(-c5cnc([C@@H]6COCCN6C(=O)[C@H](NC(=O)OC)c6ccccc6)[nH]5)cc4)ccc3c2)[nH]1)[C@@H](C)O [compound 324]	< 1
COC(=O)N[C@@H](C)C(=O)N1CCOC[C@H]1c1ncc(-c2ccc3cc(-c4ccc(-c5cnc([C@@H]6CCCN6C(=O)[C@H](NC(=O)OC)c6ccccc6)[nH]5)cc4)ccc3c2)[nH]1 [compound 326]	< 1
COC(=O)N[C@H](C(=O)N1CCOC[C@H]1c1ncc(-c2ccc3cc(-c4ccc(-c5cnc([C@@H]6CCCN6C(=O)[C@H](NC(=O)OC)c6ccccc6)[nH]5)cc4)ccc3c2)[nH]1)[C@@H](C)OC [compound 327]	< 1
COC(=O)N[C@H](C(=O)N[C@@H](C)c1ncc(-c2ccc3cc(-c4ccc(-c5cnc([C@@H]6CCCN6C(=O)[C@H](NC(=O)OC)c6ccccc6)[nH]5)cc4)ccc3c2)[nH]1)[C@@H](C)OC [compound 329]	< 1
COC(=O)N[C@H](C(=O)N1CCC[C@H]1c1ncc(-c2ccc3cc(-c4ccc(-c5cnc([C@@H]6CCCN6C(=O)[C@H](NC(=O)OC)c6ccccc6)[nH]5)cn4)ccc3c2)[nH]1)C1CCOCC1 [compound 337]	< 1
COC(=O)N[C@@H](C)C(=O)N1CCC[C@H]1c1ncc(-c2ccc3cc(-c4ccc(-c5cnc([C@@H]6CCCN6C(=O)[C@H](NC(=O)OC)c6ccccc6)[nH]5)cn4)ccc3c2)[nH]1 [compound 338]	< 1
CC[C@H](C)C(NC(=O)OC)C(=O)N1CCC[C@H]1c1nc2ccc(-c3ccc4cc(-c5cnc([C@@H]6CCCN6C(=O)[C@@H](NC(=O)OC)[C@@H](C)CC)[nH]5)ccc4c3)cc2[nH]1 (stereo partly shown) [compound 346]	< 1
COC(=O)N[C@H](C(=O)N1CCC[C@H]1c1ncc(-c2ccc3cc(-c4ccc5nc([C@@H]6CCCN6C(=O)[C@@H](NC(=O)OC)C6CCCCC6)[nH]c5c4)ccc3c2)[nH]1)C1CCCCC1 [compound 348]	< 1
COC(=O)N[C@H](C(=O)N1CCC[C@H]1c1ncc(-c2ccc3cc(-c4ccc5nc([C@@H]6COCCN6C(=O)[C@@H](NC(=O)OC)C6CCCC6)[nH]c5c4)ccc3c2)[nH]1)C1CCCC1 [compound 350]	< 1
CCC(CC)[C@H](NC(=O)OC)C(=O)N1CCC[C@H]1c1ncc(-c2ccc3cc(-c4ccc5nc([C@@H]6COCCN6C(=O)[C@@H](NC(=O)OC)C(CC)CC)[nH]c5c4)ccc3c2)[nH]1 [compound 351]	< 1
CC[C@@H](C)[C@H](NC(=O)OC)C(=O)N1CCC[C@H]1c1ncc(-c2ccc3cc(-c4ccc5nc([C@@H]6COCCN6C(=O)[C@@H](NC(=O)OC)[C@H](C)CC)[nH]c5c4)ccc3c2)[nH]1 [compound 352]	< 1
CC[C@H](C)[C@H](NC(=O)OC)C(=O)N1CCC[C@H]1c1ncc(-c2ccc3cc(-c4ccc5nc([C@@H]6COCCN6C(=O)[C@@H](NC(=O)OC)[C@@H](C)CC)[nH]c5c4)ccc3c2)[nH]1 [compound 353]	< 1
